Reference: PubChem BioAssay AID222 (DTP/NCI, 2004)
Several values for one entry are separate records, joined by “and”; a condition that tells them apart may be missing. Identical values can stand only once. Toxic doses and inconclusive results are not listed.

Tested on: C57BL/6 mice, intracerebral ependymoblastoma, median survival T/C
Test: NCI In Vivo Anticancer Drug Screen. Data for tumor model Ependymoblastoma (intracerebral) in C57BL/6 mice
Conditions: endpoint: median survival time, higher = longer survival
Experimental: The antitumor activity of compounds was measured in mice bearing transplantable tumors. Survival or tumor size were measured and the results are expressed as the measurement made in the treated group (T) divided by the measurement made in the vehicle treated control group (C). The tumor model used in this assay is Ependymoblastoma (intracerebral) in C57BL/6 mice

## OC(C1CO1)C(O)C1CO1 (stereo unspecified)
dose: 0.12 mg/kg/injection, schedule: Q03HX024 (ip), vehicle: saline
  T/C: 108 % of control
dose: 0.25 mg/kg/injection, schedule: Q01DX001 (ip), vehicle: saline
  T/C: 102 % of control
dose: 0.25 mg/kg/injection, schedule: Q01DX005 (ip), vehicle: saline
  T/C: 112 % of control
dose: 0.25 mg/kg/injection, schedule: Q01DX005 (oral), vehicle: saline
  T/C: 111 % of control
dose: 0.25 mg/kg/injection, schedule: Q01DX009 (ip), vehicle: saline
  T/C: 101 % of control
dose: 0.25 mg/kg/injection, schedule: Q03HX008 (ip), vehicle: saline
  T/C: 110 % of control
dose: 0.25 mg/kg/injection, schedule: Q03HX016 (ip), vehicle: saline
  T/C: 103 % of control
dose: 0.25 mg/kg/injection, schedule: Q03HX024 (ip), vehicle: saline
  T/C: 99 % of control
dose: 0.5 mg/kg/injection, schedule: Q01DX001 (ip), vehicle: saline
  T/C: 112 % of control
dose: 0.5 mg/kg/injection, schedule: Q01DX001 (oral), vehicle: saline
  T/C: 101 % of control
dose: 0.5 mg/kg/injection, schedule: Q01DX005 (ip), vehicle: clinical formulation
  T/C: 104 % of control
dose: 0.5 mg/kg/injection, schedule: Q01DX005 (oral), vehicle: saline
  T/C: 110 % of control
dose: 0.5 mg/kg/injection, schedule: Q01DX009 (ip), vehicle: saline
  T/C: 108 % of control
dose: 0.5 mg/kg/injection, schedule: Q03HX008 (ip), vehicle: saline
  T/C: 123 % of control
dose: 0.5 mg/kg/injection, schedule: Q03HX016 (ip), vehicle: saline
  T/C: 107 % of control
dose: 0.5 mg/kg/injection, schedule: Q03HX024 (ip), vehicle: saline
  T/C: 98 % of control
dose: 0.5 mg/kg/injection, schedule: Q## X006 (ip), vehicle: clinical formulation
  T/C: 107 % of control
dose: 1.0 mg/kg/injection, schedule: Q01DX001 (ip), vehicle: saline
  T/C: 95 % of control and 107 % of control
dose: 1.0 mg/kg/injection, schedule: Q01DX001 (oral), vehicle: saline
  T/C: 108 % of control
dose: 1.0 mg/kg/injection, schedule: Q01DX005 (ip), vehicle: clinical formulation
  T/C: 116 % of control
dose: 1.0 mg/kg/injection, schedule: Q01DX005 (oral), vehicle: saline
  T/C: 106 % of control
dose: 1.0 mg/kg/injection, schedule: Q01DX009 (ip), vehicle: saline
  T/C: 109 % of control
dose: 1.0 mg/kg/injection, schedule: Q03HX016 (ip), vehicle: saline
  T/C: 113 % of control
dose: 1.0 mg/kg/injection, schedule: Q03HX024 (ip), vehicle: saline
  T/C: 94 % of control
dose: 1.0 mg/kg/injection, schedule: Q04DX003 (ip), vehicle: saline
  T/C: 100 % of control
dose: 1.0 mg/kg/injection, schedule: Q08DX002 (ip), vehicle: saline
  T/C: 108 % of control
dose: 1.0 mg/kg/injection, schedule: Q## X006 (ip), vehicle: clinical formulation
  T/C: 108 % of control
dose: 1.0 mg/kg/injection, schedule: Q#A X002 (ip), vehicle: clinical formulation
  T/C: 104 % of control
dose: 1.25 mg/kg/injection, schedule: Q01DX005 (ip), vehicle: saline
  T/C: 365 % of control
dose: 2.0 mg/kg/injection, schedule: Q01DX001 (ip), vehicle: clinical formulation
  T/C: 91 % of control and 96 % of control and 107 % of control
dose: 2.0 mg/kg/injection, schedule: Q01DX001 (ip), vehicle: saline
  T/C: 94 % of control and 100 % of control and 113 % of control
dose: 2.0 mg/kg/injection, schedule: Q01DX001 (oral), vehicle: saline
  T/C: 108 % of control
dose: 2.0 mg/kg/injection, schedule: Q01DX005 (ip), vehicle: clinical formulation
  T/C: 115 % of control
dose: 2.0 mg/kg/injection, schedule: Q01DX005 (oral), vehicle: clinical formulation
  T/C: 106 % of control
dose: 2.0 mg/kg/injection, schedule: Q01DX005 (oral), vehicle: saline
  T/C: 118 % of control
dose: 2.0 mg/kg/injection, schedule: Q01DX009 (ip), vehicle: saline
  T/C: 113 % of control
dose: 2.0 mg/kg/injection, schedule: Q03HX016 (ip), vehicle: saline
  T/C: 118 % of control
dose: 2.0 mg/kg/injection, schedule: Q03HX024 (ip), vehicle: saline
  T/C: 105 % of control
dose: 2.0 mg/kg/injection, schedule: Q04DX003 (ip), vehicle: saline
  T/C: 105 % of control
dose: 2.0 mg/kg/injection, schedule: Q08DX002 (ip), vehicle: saline
  T/C: 102 % of control
dose: 2.0 mg/kg/injection, schedule: Q## X006 (ip), vehicle: clinical formulation
  T/C: 109 % of control
dose: 2.0 mg/kg/injection, schedule: Q#A X002 (ip), vehicle: clinical formulation
  T/C: 106 % of control
dose: 2.5 mg/kg/injection, schedule: Q01DX005 (oral), vehicle: saline
  T/C: 365 % of control
dose: 3.0 mg/kg/injection, schedule: Q01DX005 (ip), vehicle: saline
  T/C: 119 % of control and 301 % of control
dose: 4.0 mg/kg/injection, schedule: Q01DX001 (ip), vehicle: clinical formulation
  T/C: 102 % of control and 105 % of control and 108 % of control
dose: 4.0 mg/kg/injection, schedule: Q01DX001 (ip), vehicle: saline
  T/C: 94 % of control and 120 % of control
dose: 4.0 mg/kg/injection, schedule: Q01DX001 (oral), vehicle: saline
  T/C: 96 % of control
dose: 4.0 mg/kg/injection, schedule: Q01DX009 (ip), vehicle: saline
  T/C: 103 % of control
dose: 4.0 mg/kg/injection, schedule: Q03HX008 (ip), vehicle: saline
  T/C: 97 % of control
dose: 4.0 mg/kg/injection, schedule: Q03HX016 (ip), vehicle: saline
  T/C: 93 % of control
dose: 4.0 mg/kg/injection, schedule: Q03HX024 (ip), vehicle: saline
  T/C: 94 % of control
dose: 4.0 mg/kg/injection, schedule: Q04DX003 (ip), vehicle: saline
  T/C: 95 % of control
dose: 4.0 mg/kg/injection, schedule: Q08DX002 (ip), vehicle: saline
  T/C: 102 % of control
dose: 4.0 mg/kg/injection, schedule: Q#A X002 (ip), vehicle: clinical formulation
  T/C: 117 % of control
dose: 5.0 mg/kg/injection, schedule: Q01DX005 (oral), vehicle: saline
  T/C: 365 % of control
dose: 8.0 mg/kg/injection, schedule: Q01DX001 (ip), vehicle: clinical formulation
  T/C: 89 % of control and 106 % of control
dose: 8.0 mg/kg/injection, schedule: Q01DX001 (ip), vehicle: saline
  T/C: 94 % of control and 108 % of control and 112 % of control
dose: 8.0 mg/kg/injection, schedule: Q01DX001 (oral), vehicle: clinical formulation
  T/C: 91 % of control and 102 % of control and 115 % of control
dose: 8.0 mg/kg/injection, schedule: Q01DX001 (oral), vehicle: saline
  T/C: 108 % of control
dose: 8.0 mg/kg/injection, schedule: Q01DX009 (ip), vehicle: saline
  T/C: 107 % of control
dose: 8.0 mg/kg/injection, schedule: Q03HX008 (ip), vehicle: saline
  T/C: 95 % of control
dose: 8.0 mg/kg/injection, schedule: Q03HX016 (ip), vehicle: saline
  T/C: 94 % of control
dose: 8.0 mg/kg/injection, schedule: Q04DX003 (ip), vehicle: saline
  T/C: 122 % of control
dose: 8.0 mg/kg/injection, schedule: Q08DX002 (ip), vehicle: saline
  T/C: 104 % of control
dose: 8.0 mg/kg/injection, schedule: Q#A X002 (ip), vehicle: clinical formulation
  T/C: 100 % of control
dose: 16.0 mg/kg/injection, schedule: Q01DX001 (ip), vehicle: clinical formulation
  T/C: 98 % of control
dose: 16.0 mg/kg/injection, schedule: Q01DX001 (ip), vehicle: saline
  T/C: 98 % of control and 101 % of control
dose: 16.0 mg/kg/injection, schedule: Q01DX001 (oral), vehicle: clinical formulation
  T/C: 104 % of control and 108 % of control
dose: 16.0 mg/kg/injection, schedule: Q01DX001 (oral), vehicle: saline
  T/C: 101 % of control
dose: 16.0 mg/kg/injection, schedule: Q04DX003 (ip), vehicle: saline
  T/C: 99 % of control
dose: 16.0 mg/kg/injection, schedule: Q08DX002 (ip), vehicle: saline
  T/C: 104 % of control
dose: 16.0 mg/kg/injection, schedule: Q#A X002 (ip), vehicle: clinical formulation
  T/C: 102 % of control
dose: 32.0 mg/kg/injection, schedule: Q01DX001 (ip), vehicle: clinical formulation
  T/C: 100 % of control
dose: 32.0 mg/kg/injection, schedule: Q01DX001 (ip), vehicle: saline
  T/C: 90 % of control and 100 % of control
dose: 32.0 mg/kg/injection, schedule: Q01DX001 (oral), vehicle: clinical formulation
  T/C: 100 % of control and 114 % of control
dose: 32.0 mg/kg/injection, schedule: Q01DX001 (oral), vehicle: saline
  T/C: 103 % of control
dose: 32.0 mg/kg/injection, schedule: Q04DX003 (ip), vehicle: saline
  T/C: 92 % of control
dose: 32.0 mg/kg/injection, schedule: Q08DX002 (ip), vehicle: saline
  T/C: 99 % of control
dose: 64.0 mg/kg/injection, schedule: Q01DX001 (ip), vehicle: saline
  T/C: 97 % of control and 102 % of control
dose: 64.0 mg/kg/injection, schedule: Q01DX001 (oral), vehicle: clinical formulation
  T/C: 100 % of control
dose: 128.0 mg/kg/injection, schedule: Q01DX001 (oral), vehicle: clinical formulation
  T/C: 100 % of control
